Source: US11524014B2, “Pharmaceutical formulations and systems for delivery of an androgenic agent and an aromatase inhibitor with sustained multi-phasic release profiles and methods of use” (Havah Therapeutics Pty Ltd., priority 2019, dated 2022)
Several values for one entry are separate records, joined by “and”; a condition that tells them apart may be missing. Equal entries are not always repeated. Where two headings read alike, the source gives them in different places.

Tests used:
IL-6 = conditions: female breast cells treated with testosterone (Guhl, 2012); cited from earlier work
clinical = conditions: female, human, in vivo; for half-life: t1/2, arithmetic mean (terminal half-life)
Procedure: Pre-menopausal women with high Mammographic Breast Density (MBD) was selected for the study. Following the successful screening, participants came to the Wellend Clinic South Australia for dosing. The participants were to be dosed while in the luteal phase of their menstrual cycle to avoid the highly changing hormonal environment of the follicular phase. Following insertion of the implant, PK blood sampling was carried out for a duration of three months. Briefly, samples were taken repeatedly on the day of dosing, daily during the first week, weekly for the next four weeks and every second week during the last eight weeks, for a total sampling period of three months. After assessments had been completed on the last day of assessments, Day 85, the trial concluded.
The sampling schedule was revised with the addition of one blood sample (at 6 hours post-dose), and no adjustment of the timing of existing time points. The duration of sampling was not extended.
In summary, following dosing on Day 1, blood samples were taken pre-dose (within one hour of dosing) and at 1, 2, 4, 6, 8 and 12 hours. Participants returned for a blood sample to be taken at 9 am in the morning on Days 2, 3, 4, 5, 8, 15, 22, 29, 43, 57, 71 and 85.
A total of 11 subjects were dosed and included in the safety analysis set. Eleven subjects were included in the PK analysis set. Women were aged between 35 and 55 years of age, Body Mass Index (BMI) range of 20-30 kg/m^2.

[1] = Population pharmacokinetic modelling of anastrozole from the Example 1 trial; type: in vivo, human
Procedure: Data in these figures are presented as mean+/−standard deviation. […] The percentage change from baseline was calculated for the average volume and plotted against time in months. […] In FIG. 8A, the data on the X axis is plotted in time (hours) after transplantation. In FIG. 8B the X axis is on a log scale. In FIGS. 8A-B, the open circles equal observed data, the black line equals median PK profile, and the dashed dark grey line equals lower limit of quantification (0.1 ng/mL).
One and two compartment models were fitted to the data. Several absorption models were tested such as first and zero order, mixed order, as well as transit compartments. Model selection was performed on the basis of statistical criteria (objective function) as well as visual inspection of diagnostic plots. […] Between-subject variability (BSV) was included on apparent clearance (CL/F), apparent volume of distribution for the central compartment (Vc/F) and the first-order absorption rate constant (KA). A proportional error model was used to describe residual unexplained variability (RUV).

[2] = oral anastrozole; cited from earlier work
[3] = two-compartment model with dual input, T+Ai implant, n=11

C[C@]12CC[C@H]3[C@@H](CCC4=CC(=O)CC[C@@]43C)[C@@H]1CC[C@@H]2O [Testosterone, testosterone]
reduction of IL-6 levels (IL-6): 53% | time of second lower serum peak (serum testosterone after single s.c. T+Ai implant): 2-3 weeks | Cmax, arithmetic mean (single s.c. T+Ai implant 80 mg/4 mg, women, n=11, anastrozole in plasma, testosterone in serum): 4.08 ng/mL | Tmax (clinical; sc): 8 h | Cmax (clinical; sc, Cmax, arithmetic mean, single s.c. T+Ai implant 80 mg/4 mg, women, n=11, anastrozole in plasma, testosterone in serum): 4.1 ng/mL | half-life (clinical; sc, single s.c. T+Ai implant 80 mg/4 mg, women, n=11, anastrozole in plasma, testosterone in serum): 1030 h

C[C@]12CCC(=O)C[C@@H]1CC[C@@H]1[C@@H]2CC[C@]2(C)[C@@H](O)CC[C@@H]12 [dihydrotestosterone, 5 alpha dihydrotestosterone]
serum level measurability (serum dihydrotestosterone after single s.c. T+Ai implant): not measurable in most samples | Tmax (clinical; Tmax post-dose, serum dihydrotestosterone, participants with measurable maximal values): 48 to 72 h

CC(C)(C#N)c1cc(Cn2cncn2)cc(C(C)(C)C#N)c1 [Anastrozole, 2,2′-[5-(1H-1,2,4-triazol-1-ylmethyl)-1,3-phenylene]bis(2-methylpropanenitrile)]
Fraction absorbed via second input ([1]; fixed in the model (FIX)): 0.5 FIX | Absorbtion rate constant (ka) first input, estimated value (% RSE) [1, 3]: 0.119 (20.6) /hr | Absorbtion rate constant (ka) second input, estimated value (% RSE) [1, 3]: 0.148 (20.5) /hr | Apparent central volume of distribution (Vc/F), estimated value (% RSE) [1, 3]: 672 (3.0) L | Apparent clearance (CL/F), estimated value (% RSE) [1, 3]: 1.77 L/hr and 1.77 (6.9) L/hr | Apparent peripheral volume of distribution (Vp/F), estimated value (% RSE) [1, 3]: 106 (29.8) L | Inter-compartmental clearance (Q/F), estimated value (% RSE) [1, 3]: 0.97 (57.7) L/hr | Lagged time for second input, estimated value (% RSE) [1, 3]: 3.77 (9.7) h | t1/2, arithmetic mean (terminal half-life) (female, human, in vivo, sc): 326 h | CL/F, arithmetic mean (NCA) (human, in vivo, sc): 1.88 L/h | concentration at 12 weeks (clinical): < 0.1 ng/mL | Tmax (clinical; sc, Tmax, median, single s.c. T+Ai implant 80 mg/4 mg, women, n=11, anastrozole in plasma, testosterone in serum): 48.6 h | Tmax (clinical; sc, median Tmax post-dose, plasma anastrozole after single s.c. T+Ai implant, range 1-3 days): 48 h | half-life (clinical; sc): 336 h | half-life [2]: 48 h
